What was measured:
[1] = test system: Class I HDACs; test: Specific HDAC activity analysis, Class I HDACs overall; assay type: biochemical
Procedure: Specific HDAC inhibition activity was analysed for HDAC1, 2, 3, 4, 5, 6, 9 using fluorogenic assay kits for each type of HDAC (BPS Bioscience, CA). Assays were conducted according to manufacturer's instructions and each sample were performed in replicates. Cell free supernatants were diluted 1 in 10 and exposed to specific HDAC proteins provided in the kit to maintain consistency between methods.
The specific HDAC inhibition profile of the test bacteria strain was investigated. Specific HDAC inhibition assays (BPS Bioscience, CA) were carried out for Class I and Class II HDACs. The ability of the bacterial strain to inhibit HDAC enzymes was compared to butyrate, hexanoic and valeric acid (FIGS. 14 and 15).

[2] = test system: HDAC; test: HDAC inhibition on whole HT-29 cells and HT-29 cell lysate; assay type: cell-based; settings: HT-29, whole cells or lysate not told apart in the sentence
Procedure: Bacterial culture and cell-free supernatant collection Pure cultures of bacteria were grown anaerobically in YCFA broth until they reached their stationary growth phase. Cultures were centrifuged at 5,000×g for 5 minutes and the cell-free supernatant (CFS) was filtered using a 0.2 μM filter (Millipore, UK). 1 mL aliquots of the CFS were stored at −80° C. until use. Sodium butyrate, hexanoic and valeric acid were obtained from Sigma Aldrich (UK) and suspensions were prepared in YCFA broth.
To investigate which metabolites were responsible for the strain-induced HDAC inhibition, different concentrations of hexanoic acid, valeric acid and sodium butyrate were measured for their HDAC inhibition on whole HT-29 cells and on HT-29 cell lysate.

In the case of `CCCCC(=O)O` [valeric acid], the “Inhibition of Class I HDACs” value [1] is reported as “class 1 HDAC inhibitor”, the “total HDAC activity, pure substances” value [2] is reported as “significant HDAC inhibition” and the “total HDAC activity, pure substances” value ([2]; listed as Valeric acid) is reported as “inhibited”.

— patent publication US11660319B2, “Compositions comprising bacterial strains” (priority 2017, dated 2023)
